# Experimental data reported in paper PMC4926070, “Cembranoids from a Chinese Collection of the Soft Coral Lobophytum crassum” (Marine Drugs, 2016).
# Where two headings read alike, the source gives them in different places.
# How the values were obtained:
# [1] = system: LPS-induced NO production in mouse peritoneal macrophages (PEMФ); assay: Inhibition of lipopolysaccharide (LPS)-induced nitric oxide (NO) production; format: cell-based; conditions: Peritoneal macrophage, compounds tested at 1–30 μM, read-out: IC50, inhibitory activity against LPS-induced NO production
# Experimental: All compounds were tested for their in vitro anti-inflammatory activities. Nitric oxide (NO) is an important signaling molecule that is involved in the regulation of diverse physiological and pathological processes. Overproduction of NO is associated with various human diseases, particularly acute and chronic inflammation, while the level of NO can reflect the degree of inflammation.
# (§1) A previously established protocol was followed except that 30 mM dexamethasone in DMSO was used as the positive control and each test compound (30 mM in DMSO) was diluted to 1–30 μM at r.t. before the experiment.
# [2] = Cytotoxicity against mouse peritoneal macrophages; format: cell-based
# Experimental: as §1
# [3] = mouse peritoneal macrophages, read-out: CC50, cytotoxicity against mouse peritoneal macrophages
IC50 [1] [µM],SMILES,"CC50 [2, 3] [µM]",CC50 [2] [µM]
12 ± 2,"COC(=O)/C1=C\C=C(\C(C)C)CCC2=CCC[C@](C)(OC2=O)C(=O)CC1 [Compound 17, ketoemblide]",> 60,
17 ± 3,"COC(=O)C1=CCCC2(C)OC2CCC(C(=O)OC)=CC=C(C(C)C)CC1 (stereo not shown) [Compound 1, Locrassumin A]",> 60,
24 ± 2,"CC1=C2CC/C(C)=C/CC[C@@]3(C)O[C@@H]3CC/C(C)=C/[C@H]2OC1=O [Compound 12, ent-sarcophine]",,> 60
8 ± 1,"COC(=O)/C1=C\CC[C@@]2(C)O[C@@H]2CC/C(C(=O)OC)=C/C=C(/C(C)C)CC1 [Compound 13, sarcophytonolide O]",> 60,
13 ± 2,"COC1(C)CC=CC(C)(O)CCC2=C(C)COC2C=C(C)CCC1O (stereo not drawn) [Compound 7, (2R*,7R*,8S*,12S*,1Z,3E,10E)-8-methoxy-2,16-epoxycembra-1(15),3,10-trien-7,12-diol]",> 60,
